Experiments:
[1] = target: T1, Nonstructural protein 5A (Hepatitis C virus) (UniProt Q5L478); assay: Inhibition of NS5A in HCV genotype 2a infected in human Huh7.5/J6/JFH1/EMCVIRES/hRlucNeo cells assessed as inhibition of replicon levels at 1 uM incubated for 72 hrs by luciferase reporter gene assay; settings: Hepatitis C virus subtype 2a
T1 sequence (whole entry): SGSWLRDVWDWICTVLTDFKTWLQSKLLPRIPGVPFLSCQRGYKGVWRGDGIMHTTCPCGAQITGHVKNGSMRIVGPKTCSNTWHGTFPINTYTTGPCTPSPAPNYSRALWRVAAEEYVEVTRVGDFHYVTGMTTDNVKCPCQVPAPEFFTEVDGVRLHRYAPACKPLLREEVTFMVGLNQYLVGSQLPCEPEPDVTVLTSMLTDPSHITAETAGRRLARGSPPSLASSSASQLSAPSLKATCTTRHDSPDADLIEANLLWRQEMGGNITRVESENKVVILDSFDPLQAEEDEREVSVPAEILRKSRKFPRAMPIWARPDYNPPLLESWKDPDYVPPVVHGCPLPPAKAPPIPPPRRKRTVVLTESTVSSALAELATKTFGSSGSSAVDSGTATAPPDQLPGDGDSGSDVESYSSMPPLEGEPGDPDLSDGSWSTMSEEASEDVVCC

[2] = Clearance in rat at 1 mg/kg, iv measured up to 24 hrs by LC-MS/MS analysis; format: ADME, organism-based; settings: in vivo
[3] = Protein binding in human plasma; format: ADME, cell-free; settings: read-out: PPB
[4] = AUC(last) in rat at 1 mg/kg, iv measured up to 24 hrs by LC-MS/MS analysis; format: ADME, organism-based; design: dose 1 mg/kg, route intravenous, time 0 - last; settings: in vivo
[5] = Protein binding in rat plasma; format: ADME, cell-free; settings: read-out: PPB
[6] = Half life in rat at 1 mg/kg, iv measured up to 24 hrs by LC-MS/MS analysis; format: ADME, organism-based; settings: in vivo
[7] = Drug metabolism in rat liver microsomes assessed as metabolic rate at 1 uM preincubated for 5 mins before NADPH addition and measured up to 30 mins by LC-MS/MS analysis; format: ADME, Microsome; settings: 0.5 h
[8] = Cmax in rat at 10 mg/kg, po measured up to 24 hrs by LC-MS/MS analysis; format: ADME, organism-based; design: dose 10 mg/kg, route oral; settings: in vivo
[9] = Cytotoxicity in human HEK293 cells assessed as inhibition of cell growth at 10 uM incubated for 72 hrs by CCK8 assay relative to control; format: cell-based; settings: read-out: GI
[10] = Drug level in plasma of Wistar rat at 10 mg/kg, po measured at 4 hrs by LC-MS/MS analysis; format: ADME, organism-based
[11] = Drug metabolism in human liver microsomes assessed as metabolic rate at 1 uM preincubated for 5 mins before NADPH addition and measured up to 30 mins by LC-MS/MS analysis; format: ADME, Microsome; settings: 0.5 h
[12] = Drug level in liver of Wistar rat at 10 mg/kg, po measured at 4 hrs by LC-MS/MS analysis; format: ADME, organism-based; settings: read-out: Drug uptake
[13] = Oral bioavailability in rat at 10 mg/kg measured up to 24 hrs by LC-MS/MS analysis; format: ADME, organism-based; settings: in vivo
[14] = Volume of distribution at steady state in rat at 1 mg/kg, iv measured up to 24 hrs by LC-MS/MS analysis; format: ADME, organism-based; settings: in vivo, read-out: Vdss
[15] = AUC (last) in rat at 10 mg/kg, po measured up to 24 hrs by LC-MS/MS analysis; format: ADME, organism-based; design: dose 10 mg/kg, time 0 - last, route oral; settings: in vivo
[16] = Ratio of dug level in liver to plasma of Wistar rat at 10 mg/kg, po measured at 4 hrs by LC-MS/MS analysis; format: ADME, organism-based
[17] = target: CYP3A4 (Homo sapiens, UniProt P08684); assay: Inhibition of CYP3A4 in pooled human liver microsomes at 10 uM pre-incubated for 5 mins before NADPH addition and measured after 10 mins by UPLC-MS/MS analysis relative to control; format: ADME
CYP3A4, sequence (P08684 whole entry): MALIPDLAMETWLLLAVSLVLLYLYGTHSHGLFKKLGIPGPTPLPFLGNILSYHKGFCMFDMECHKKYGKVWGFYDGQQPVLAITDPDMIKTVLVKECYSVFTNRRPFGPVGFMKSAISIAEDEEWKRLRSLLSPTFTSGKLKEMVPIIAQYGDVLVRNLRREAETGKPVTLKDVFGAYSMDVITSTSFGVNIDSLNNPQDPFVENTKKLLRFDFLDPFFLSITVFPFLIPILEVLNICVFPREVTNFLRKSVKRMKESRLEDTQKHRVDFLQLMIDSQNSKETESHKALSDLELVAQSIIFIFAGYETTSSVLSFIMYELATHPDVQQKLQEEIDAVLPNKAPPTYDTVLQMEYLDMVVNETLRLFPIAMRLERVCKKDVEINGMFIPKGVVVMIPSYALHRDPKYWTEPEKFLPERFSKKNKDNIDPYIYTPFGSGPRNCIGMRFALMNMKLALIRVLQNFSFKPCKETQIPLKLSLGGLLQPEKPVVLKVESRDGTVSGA

[18] = target: CYP2C9 (Homo sapiens, UniProt P11712); assay: Inhibition of CYP2C9 in pooled human liver microsomes at 10 uM pre-incubated for 5 mins before NADPH addition and measured after 10 mins by UPLC-MS/MS analysis relative to control; format: ADME
CYP2C9, sequence (P11712 whole entry): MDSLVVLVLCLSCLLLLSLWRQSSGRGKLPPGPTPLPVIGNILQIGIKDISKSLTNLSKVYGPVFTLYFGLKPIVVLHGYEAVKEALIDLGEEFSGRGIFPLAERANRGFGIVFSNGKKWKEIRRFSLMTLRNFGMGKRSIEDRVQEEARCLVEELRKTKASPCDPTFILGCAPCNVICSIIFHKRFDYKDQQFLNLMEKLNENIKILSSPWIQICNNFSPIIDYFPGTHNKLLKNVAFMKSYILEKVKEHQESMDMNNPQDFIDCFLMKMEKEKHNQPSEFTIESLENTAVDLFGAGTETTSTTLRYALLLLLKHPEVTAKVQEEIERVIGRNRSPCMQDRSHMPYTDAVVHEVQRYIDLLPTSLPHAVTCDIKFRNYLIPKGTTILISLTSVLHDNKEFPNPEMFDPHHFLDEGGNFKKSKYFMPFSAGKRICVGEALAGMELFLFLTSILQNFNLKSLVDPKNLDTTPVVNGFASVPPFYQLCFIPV

[19] = target: CYP2D6 (Homo sapiens, UniProt P10635); assay: Inhibition of CYP2D6 in pooled human liver microsomes at 10 uM pre-incubated for 5 mins before NADPH addition and measured after 10 mins by UPLC-MS/MS analysis relative to control; format: ADME
CYP2D6, sequence (P10635 whole entry): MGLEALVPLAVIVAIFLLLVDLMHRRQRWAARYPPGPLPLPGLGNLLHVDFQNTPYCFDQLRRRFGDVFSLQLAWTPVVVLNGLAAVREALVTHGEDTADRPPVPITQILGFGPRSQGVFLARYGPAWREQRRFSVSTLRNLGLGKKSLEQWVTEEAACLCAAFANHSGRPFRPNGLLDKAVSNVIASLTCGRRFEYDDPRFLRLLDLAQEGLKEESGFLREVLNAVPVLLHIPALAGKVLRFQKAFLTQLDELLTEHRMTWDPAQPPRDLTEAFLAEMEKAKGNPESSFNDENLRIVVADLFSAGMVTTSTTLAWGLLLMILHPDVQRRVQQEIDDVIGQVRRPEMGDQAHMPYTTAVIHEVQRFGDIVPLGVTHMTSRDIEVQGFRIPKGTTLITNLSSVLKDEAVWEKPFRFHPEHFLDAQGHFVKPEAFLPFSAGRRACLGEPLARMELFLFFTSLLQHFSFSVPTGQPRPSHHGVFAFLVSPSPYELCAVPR

[20] = Cytotoxicity in human HuH7 cells assessed as inhibition of cell growth at 3 uM incubated for 72 hrs by CCK8 assay relative to control; format: cell-based, Huh-7; settings: read-out: GI
[21] = Cytotoxicity in human HepG2 cells assessed as inhibition of cell growth at 10 uM incubated for 72 hrs by CCK8 assay relative to control; format: cell-based; settings: read-out: GI
[22] = Cytotoxicity in human HEK293 cells assessed as inhibition of cell growth at 3 uM incubated for 72 hrs by CCK8 assay relative to control; format: cell-based; settings: read-out: GI
[23] = Drug level in liver of Wistar rat at 10 mg/kg, po measured up to 8 hrs by LC-MS/MS analysis; format: ADME, organism-based; settings: in vivo
[24] = Cytotoxicity in human HepG2 cells assessed as inhibition of cell growth at 3 uM incubated for 72 hrs by CCK8 assay relative to control; format: cell-based; settings: read-out: GI

SMILES	clearance [2] [mL/min/kg]	AUC(0-t) at 24 h [4] [µM·h]	half-life [6] [h]	Drug metabolism [7] [nmol/min/mg]	Cmax [8] [nM]	inhibition at 72 h, 10 µM [9] [%]	concentration at 4 h [10] [nM]	Drug metabolism [11] [nmol/min/mg]	concentration at 4 h [12] [nM]	bioavailability [13] [%]	Vd [14] [L/kg]	AUC(0-t) at 24 h [15] [µM·h]	Kp at 4 h [16]	inhibition at 10 min, 10 µM [17] [%]	inhibition at 10 min, 10 µM [18] [%]	inhibition at 10 min, 10 µM [19] [%]	inhibition at 72 h, 3 µM [20] [%]	inhibition at 72 h, 10 µM [21] [%]	inhibition at 72 h, 3 µM [22] [%]	Drug uptake [23]	also measured
COC(=O)N[C@H](C(=O)N1CCC[C@H]1c1ncc(-c2ccc3c(ccc4sc(-c5cnc([C@@H]6CCCN6C(=O)[C@@H](NC(=O)OC)C(C)C)[nH]5)nc43)c2)[nH]1)C(C)C	–	–	–	–	–	–	–	–	–	–	–	–	–	–	–	–	–	–	–	–	inhibition [1]: 0%
COC(=O)N[C@H](C(=O)N1CCC[C@H]1c1nc(Cl)c(-c2ccc3c(c2)OCC(C)(C)COc2cc(-c4[nH]c([C@@H]5CCCN5C(=O)[C@@H](NC(=O)OC)C(C)C)nc4Cl)ccc2-3)[nH]1)C(C)C	37	0.43	3.8	0	500	63	640	0	7100	56	10	2.4	11	6	29	6	25	27	44	Active	fraction unbound [3]: < 0.01; fraction unbound [5]: < 0.01; inhibition at 72 h, 3 µM [24]: 23%
COC(=O)N[C@H](C(=O)N1CCC[C@H]1c1ncc(-c2ccc3c(c2)OCC(C)(C)COc2cc(-c4cnc([C@@H]5CCCN5C(=O)[C@@H](NC(=O)OC)C(C)C)[nH]4)ccc2-3)[nH]1)C(C)C	17	1.1	2.1	0.01	1900	33	620	0.02	7600	47	2.3	5.2	13	0	0	17	4	35	17	Active	inhibition at 72 h, 3 µM [24]: 8%

— ChEMBL document CHEMBL4321845, “Discovery and Characterization of Potent Pan-Genotypic HCV NS5A Inhibitors Containing Novel Tricyclic Central Core Leading to Clinical Candidate” (J Med Chem, 2019)
